From the supplement of paper PMC5908809

Columns and labels:
IMC-1 (IL-2 20 ng/mL) [1] = test: percent inhibition of viability; higher = more inhibition; conditions: 72 h
[2] = test system: normal primary NK cells, pool 1 (3 donors), resting (IL-2 0 ng/mL); test: as above; conditions: 72 h
NKL (IL-2 2.5 ng/mL) [3] = test: as above; conditions: 72 h
KAI3 (IL-2 2.5 ng/mL) [4] = test: as above; conditions: 72 h
[5] = test system: normal primary NK cells, pool 3 (3 donors) (IL-2 2.5 ng/mL); test: as above; conditions: 72 h
[6] = test system: normal primary NK cells, pool 2 (3 donors) (IL-2 2.5 ng/mL); test: as above; conditions: 72 h
[7] = test system: normal primary NK cells, pool 1 (3 donors) (IL-2 2.5 ng/mL); test: as above; conditions: 72 h
YT (IL-2 2.5 ng/mL) [8] = test: as above; conditions: 72 h
DERL-7 (IL-2 2.5 ng/mL) [9] = test: as above; conditions: 72 h
KHYG-1 (IL-2 2.5 ng/mL) [10] = test: as above; conditions: 72 h
SNK-6 (IL-2 2.5 ng/mL) [11] = test: as above; conditions: 72 h
NK-YS (IL-2 2.5 ng/mL) [12] = test: as above; conditions: 72 h
NK-92 (IL-2 2.5 ng/mL) [13] = test: as above; conditions: 72 h
[14] = test system: normal NK cells expanded with K562-aAPC; test: drug sensitivity score (DSS) (DSS units); higher = more sensitive; extreme values may be limits of the assay; conditions: 72 h; IL-2 2.5 ng/mL
Procedure: (§1)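 Drug sensitivity and resistance testing on K562-aAPC-expanded normal NK cells: 5 concentrations (10-fold steps over a 10,000-fold range), 72 h at 37 °C, viability by CellTiter-Glo normalised to DMSO and benzethonium chloride controls; DSS from the fitted curve.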

[15] = test system: normal NK cells expanded with K562-aAPC; test: percent inhibition of viability; higher = more inhibition; conditions: 72 h, IL-2 2.5 ng/mL
Procedure: as §1

IMC-1 (IL-2 20 ng/mL) [16] = test: drug sensitivity score (DSS) (DSS units); higher = more sensitive; extreme values may be limits of the assay; conditions: 72 h
[17] = test system: normal primary NK cells, pool 1 (3 donors), resting (IL-2 0 ng/mL); test: as above; conditions: 72 h
NKL (IL-2 2.5 ng/mL) [18] = test: as above; conditions: 72 h
KAI3 (IL-2 2.5 ng/mL) [19] = test: as above; conditions: 72 h
[20] = test system: normal primary NK cells, pool 3 (3 donors) (IL-2 2.5 ng/mL); test: as above; conditions: 72 h
[21] = test system: normal primary NK cells, pool 2 (3 donors) (IL-2 2.5 ng/mL); test: as above; conditions: 72 h
[22] = test system: normal primary NK cells, pool 1 (3 donors) (IL-2 2.5 ng/mL); test: as above; conditions: 72 h
YT (IL-2 2.5 ng/mL) [23] = test: as above; conditions: 72 h
DERL-7 (IL-2 2.5 ng/mL) [24] = test: as above; conditions: 72 h
KHYG-1 (IL-2 2.5 ng/mL) [25] = test: as above; conditions: 72 h
SNK-6 (IL-2 2.5 ng/mL) [26] = test: as above; conditions: 72 h
NK-YS (IL-2 2.5 ng/mL) [27] = test: as above; conditions: 72 h
NK-92 (IL-2 2.5 ng/mL) [28] = test: as above; conditions: 72 h

Cc1cc([C@@H](C)Nc2ccccc2C(=O)O)c2nc(N3CCOCC3)cc(=O)n2c1 [AZD-6482] (max concentration tested 2500 nM)
percent inhibition of viability [%]
Conditions	0.25 nM	2.5 nM	25 nM	250 nM	2500 nM
DERL-7 (IL-2 2.5 ng/mL) [9]	-4.2	-4.4	3.19	2.6	17
IMC-1 (IL-2 20 ng/mL) [1]	1.39	3.21	2.72	3.93	-5.9
KAI3 (IL-2 2.5 ng/mL) [4]	-5.85	-0.65	-3.24	1.82	7.93
KHYG-1 (IL-2 2.5 ng/mL) [10]	-0.9	1.99	2.56	6.11	8.71
NK-92 (IL-2 2.5 ng/mL) [13]	-8.01	-6.53	4.21	8.86	41.9
NK-YS (IL-2 2.5 ng/mL) [12]	-5.33	-1.23	-3.08	0.81	7.94
NKL (IL-2 2.5 ng/mL) [3]	-13.3	2.45	-1.09	6.43	-3.2
SNK-6 (IL-2 2.5 ng/mL) [11]	17.7	22.5	28.9	18.4	9.67
YT (IL-2 2.5 ng/mL) [8]	2.09	3.67	7.43	14.2	28.4
[2]	1.92	-14.9	-3.13	-1.54	14
[5]	-9.49	-6.79	13.8	-3.71	13
[6]	-5.18	0.99	18.9	5.04	17.1
[7]	-3.99	-0.34	5.64	2.68	19.6
[15]	-0.89	-3.51	0.58	12.4	16.6

Conditions	drug sensitivity score
DERL-7 (IL-2 2.5 ng/mL) [24]	0.68
IMC-1 (IL-2 20 ng/mL) [16]	0
KAI3 (IL-2 2.5 ng/mL) [19]	0
KHYG-1 (IL-2 2.5 ng/mL) [25]	0
NK-92 (IL-2 2.5 ng/mL) [28]	3.55
NK-YS (IL-2 2.5 ng/mL) [27]	0
NKL (IL-2 2.5 ng/mL) [18]	0
SNK-6 (IL-2 2.5 ng/mL) [26]	0.11
YT (IL-2 2.5 ng/mL) [23]	2.58
[14]	1.31
[17]	0.12
[20]	0.05
[21]	1.26
[22]	0.92

COc1ccc2c(OCc3nnc4ccc(-c5ccccc5)nn34)ccnc2c1 [AMG-208] (max concentration tested 2500 nM)
percent inhibition of viability [%]
Conditions	0.25 nM	2.5 nM	25 nM	250 nM	2500 nM
DERL-7 (IL-2 2.5 ng/mL) [9]	-3.09	-8.21	-1.7	-5.84	-4.71
IMC-1 (IL-2 20 ng/mL) [1]	-1.21	1.46	1.28	6.67	11.1
KAI3 (IL-2 2.5 ng/mL) [4]	-0.14	-2.19	-6.54	1.34	11.6
KHYG-1 (IL-2 2.5 ng/mL) [10]	-2.14	0.21	1.18	6.23	15.6
NK-92 (IL-2 2.5 ng/mL) [13]	0.24	-14.7	-6.65	10.4	13.1
NK-YS (IL-2 2.5 ng/mL) [12]	-3.94	-3.82	-0.96	1.47	6.08
NKL (IL-2 2.5 ng/mL) [3]	-4.88	-0.72	5.74	1.87	1.01
SNK-6 (IL-2 2.5 ng/mL) [11]	2.2	11.6	22.9	28.1	18.8
YT (IL-2 2.5 ng/mL) [8]	1.44	4.97	5.31	10	12.4
[2]	-15.8	-2.94	7.27	3.54	-2.41
[5]	-8.14	-5.89	5.5	0.46	5.72
[6]	-3.74	-5.68	4.86	9.98	4.41
[7]	0.88	0.76	0.54	1.27	4.15
[15]	-4.22	-2.93	1.22	-1.02	9.46

Conditions	drug sensitivity score
DERL-7 (IL-2 2.5 ng/mL) [24]	0.89
IMC-1 (IL-2 20 ng/mL) [16]	0.02
KAI3 (IL-2 2.5 ng/mL) [19]	0.07
KHYG-1 (IL-2 2.5 ng/mL) [25]	0.59
NK-92 (IL-2 2.5 ng/mL) [28]	0.61
NK-YS (IL-2 2.5 ng/mL) [27]	0
NKL (IL-2 2.5 ng/mL) [18]	0
SNK-6 (IL-2 2.5 ng/mL) [26]	7.74
YT (IL-2 2.5 ng/mL) [23]	0.16
[14]	0
[17]	0
[20]	0
[21]	0
[22]	0
